Bridges are numbered along the chain shown (N, C = ends). Where no end group is shown, it is not given here.
How the values were obtained:
occludin = experiment: Occludin distribution by immunofluorescence after peptide treatment; type: cell-based, mouse; conditions: mature EPH4 monolayers, 8 hours at 350 μM
Protocol: To establish the effect of LYHY (SEQ ID NO:1) and DFYNP (SEQ ID NO:2) peptide treatment upon the distribution of endogenous occludin, EPH4 cells were treated with the peptides for 8 hours. The effect of peptides on occludin distribution in mature EPH4 cell monolayers is shown on FIG. 3B, where cell cultures grown on glass slides were treated with LYHY (SEQ ID NO:1), DFYNP (SEQ ID NO:2) or control LYQY (SEQ ID NO:3) peptide for 8 hours at 350 μM. Cells were then stained for occludin. […] Occludin was not as brightly stained at the tight junction in these cells and appeared in intracellular regions outside the tight junction.

EPH4 cells [1] = experiment: TUNEL staining of peptide-treated EPH4 cells; type: cell-based, mouse; conditions: for rate of apoptosis: peptide treatment of mature monolayers
Protocol: (§1) TUNEL staining was performed using the Roche In Situ Cell Death Detection Kit, TMR red. Cells were fixed in 2% paraformaldehyde and permeabilized in 1% sodium citrate (trisodium salt) containing 0.1% TX-100. Staining was performed as per manufacturers instructions.
(§2) Having established that LYHY (SEQ ID NO:1) and DFYNP (SEQ ID NO:3) peptides impeded recovery of TER following the calcium switch and changed the normal distribution of occludin, the effects of disruption of occludin function on apoptosis was examined. EPH4 mouse mammary epithelial cells and MDCK canine kidney epithelial cells were treated with LYHY (SEQ ID NO:1) peptide for various times and then TUNEL stained.
(§3) FIGS. 4A and 4B show the effects of the LYHY (SEQ ID NO:1) peptide on TUNEL reactivity and TER. In particular, FIG. 4A is a graph showing the number of TUNEL stained EPH4 and MDCK cells that were grown on glass slides and treated with LYHY (SEQ ID NO:1) or control peptide for 6 or 12 hours. FIG. 4B is a graph of TER that was recorded at 0, 24, […], and 72 hours post peptide treatment of EPH4 cells that were grown on filters until the TER reached 1000 (Ohms·cm^2), then treated with solvent, LYHY (SEQ ID NO:1), or control peptides. Peptides were diluted to 350 μM in normal growth medium and placed in the top and bottom chambers. TER was recorded at 0, 24, 48, and 72 hours post peptide treatment. Peptides were replenished daily, after recordings.

EPH4 cells [2] = experiment: TER of intact high resistance monolayers during peptide treatment; type: cell-based, mouse; conditions: 350 μM, 3 days of peptide treatment, replenished daily
Protocol: as §3
Similarly, treatment of EPH4 cells with a larger occludin mimic peptide caused a change in occludin distribution while treated cells maintained the majority of control TER.

MDCK cells = experiment: TUNEL staining of peptide-treated MDCK cells; type: cell-based, canine; conditions: 6 or 12 hours
Protocol: as §1, §2
as §3, with “Peptides were replenished daily, after recordings.” left out

[3] = test system: activated caspase-8 and activated caspase-3; experiment: Activated caspase stains in live peptide-treated cells; type: cell-based, mouse; conditions: EPH4 cells, 2 h post peptide treatment, 350 μM
Protocol: Cells were stained with Image-iT®LIVE Green Caspase-8 Detection Kit, Molecular Probes and/or Image-iT®LIVE Red Caspase-3 and -7 Detection Kit, Molecular Probes. Stains were both diluted into differentiation media that contained LYHY (SEQ ID NO:1) or LYQY (SEQ ID NO:3). Cells were stained in the incubator 1 hour, rinsed in […] differentiation media, and processed for immunofluorescence.
Possible mechanism linking occludin disruption to a known means of initiation of apoptosis was then explored using the LYHY (SEQ ID NO:1) peptide. It is believed that the loss of cellular adhesion results in the activation of the death receptor pathway and specify caspase-8 as the initiator caspase in apoptosis occurring due to loss of either cadherin or integrin function. To observe potential activation of the caspase-8 cascade, live EPH4 cells that had been treated with LYHY (SEQ ID NO:1) or control peptide were stained with cell permeable, fluorescent probes that irreversibly bind the proteolytic sites of activated caspase-8 (carboxyfluoresceine-LETD-fmk) and activated caspase-3 (sulphorhodamine-DEVD-fmk). […] Areas showing caspase-3 activation overlapped with areas showing caspase-8 activation, while caspase-8 activation was more widespread and sometimes occurred alone. […]

EPH4 cells [4] = experiment: Calcium switch: recovery of transepithelial resistance; type: cell-based, mouse; conditions: peptide 350 μM, removed after 24 hours
Protocol: To confirm that the LYHY (SEQ ID NO:1) and DFYNP (SEQ ID NO:2) peptides disrupted tight junction properties, a “calcium switch” experiment was performed. The removal of extracellular Ca^+2 and Mg^+2 abolished TER and disrupts intercellular junctions when applied to various epithelia, causing an intracellular redistribution of various cell adhesion proteins, including occludin, away from the apical junction complex. Several epithelial cell lines reorganized the apical junction complex and recovered TER following the replenishment of normal Ca^+2 and Mg^+2 containing medium. The calcium switch was performed on filter-grown EPH4 cells that had achieved a TER of 1000 Ohms·cm^2. After 15 minutes in Ca^+2 and Mg^+2 depleted-medium, TER was reduced to baseline resistance. Cells were then switched back to normal medium containing the occludin peptide, the claudin peptide or the control peptide at a concentration of 350 μM. The control peptide (LYQY (SEQ ID NO:3)) had one amino acid substitution of the occludin peptide and was also circularized with cysteines at each terminus. Peptides were removed after 24 hours. […] TER was measured at 12 and 24 hours following peptide application. Peptides were washed away 24 hours following application and TER was measured every 24 hours thereafter. […]

Substance | distribution of endogenous occludin (occludin) | rate of apoptosis (EPH4 cells [1]) | effect on TER of intact monolayers (EPH4 cells [2]) | TUNEL staining (MDCK cells) | staining for activated caspases (caspase-8, caspase-3) [3] | TUNEL staining (EPH4 cells [1]; EPH4 cells, 6 or 12 hours) | TER reached after the calcium switch (EPH4 cells [4]; after about 6 days / several days following peptide removal) [Ohms·cm^2] | time to recover initial TER following the calcium switch (EPH4 cells [4]; initial TER 1000 Ohms·cm^2) [h]
H-CDFYNPC (disulfide 1-7; not fully specified) [peptide derived from the second extracellular loop of several claudins, cyclized via flanking cysteines] | islands of cells with irregular occludin distribution | increase the rate of apoptosis | did not significantly reduce TER |  |  |  |  | 
cyclic H-CLYHYC-OH (flanking Cys, cyclised; TJ Protein Modulator 1) [Occludin second extracellular loop peptide, cyclized via flanking cysteines] | islands of cells with irregular occludin distribution | increase the rate of apoptosis | did not significantly reduce TER | increased TUNEL staining | increased staining for activated caspases relative to controls | increased TUNEL staining |  | 
Cyclic H-CLYQYC-OH (flanking Cys, cyclised; Control Peptide Fig. 3A) [control peptide with one amino acid substitution of the occludin peptide, circularized with cysteines at each terminus] | Only an occasional cell showing non-tight junctional distribution of occludin |  |  |  |  |  | 4000 | ≤ 48

Reference: patent publication US9067968B2, “Tight junction protein modulators and uses thereof” (The Regents of the University of Colorado, a body corporate, priority 2007, dated 2015)
